# In patent US9598463B2, “Mucin hypersecretion inhibitors and methods of use” (BIOMARCK PHARMACEUTICALS, LTD., priority 2005, dated 2017):
# Marks after values point to notes of the source that are not given here.
# What was measured:
# [1] = Stability of test peptides in human BALF (LC/MS/MS, first order half-life); format: in vitro ADME; conditions: cerebrospinal or other body fluid, human BALF from COPD patients, 1st experiment, read-out: BALF t1/2 (1st exp.) (converted)
# Protocol: (§1) Various test peptides in human plasma, human BALF, and CF patient mucus were analyzed to determine the susceptability of the test peptide to proteolysis in the biological fluids. […] The samples were analyzed either on the same day as received or stored at −20° C. and analyzed within the following two days.
# Samples of BALF collected from COPD patients were obtained and frozen. The BALF samples were thawed, mixed together and centrifuged at 10,000×g for 10 min at 4-8° C. The supernatant (0.9 mL) was spiked with 0.1 mL of 0.5 mg/mL solution of the peptide in 75 mM sodium acetate buffer at pH 7.0 and processed and analyzed as described above.
# (§2) All samples were analyzed using LC/MS/MS (MDS/SCIEX, API 4000 Model). Chromatography was performed using a Phenomenex Luna C18 column, while mass spectrometry was performed using positive ion electrospray ionization.
# (§3) Calibration standards were analyzed by LCMS at concentrations of 0.100 μg/mL, 1.00 μg/mL, 10.0 μg/mL, and 100 μg/mL for each peptide, with the exception of the calibration standards for peptides myr-PEPTIDE 106, PEPTIDE 106, PEPTIDE 106-NH2, PEPTIDE 106, and cyclic peptide, cyc-PEPTIDE 106, in human mucus, which were analyzed at concentrations of 0.100 μg/mL, 1.00 μg/mL, 10.0 μg/mL, and 75 μg/mL. Standards were prepared in 1% human BALF, plasma, or mucus in 50/50 water/acetonitrile mixture containing 0.2% formic acid. The instrument response values for each set of standards were fit using a 1/(concentration)^2 linear least-squares line. Sample concentrations were calculated using the slope and intercept of this line. Concentrations outside of the calibration range were determined by extrapolating the calibration curve.
# Duplicate calibration standards were analyzed at a concentration of 50 μg/mL for each peptide. The instrument response values for each set of standards were fit through an intercept of 0 using an unweighted, linear least-squares line. Sample concentrations were calculated using the slope and intercept of this line.
# For the analysis of peptide concentration in BALF samples, one 50 μg/mL calibration standard prepared in a mixture of BALF, water, acetonitrile, and formic acid was analyzed with each sample set.
# (§4) Watson fits the log transformed data with a least-squares line to determine parameters such as Cmax (maximum concentration), intercept, rate constant, slope, and T1/2 (half-life). The resulting kinetic parameters were based on the linear fit, not the actual concentration values.
# (§5) Time-zero calibration standards in solution were not included as part of the kinetic profiles.
# [2] = tested on: methacholine-induced mucin hypersecretion; test: Duration of action of test peptides in a murine model of asthma; format: in vivo; conditions: Balb/C mice
# Source text: Experiments were designed to test whether or not the MANS peptide and other test peptides related thereto inhibit hypersecretion of mucin in murine airway in vivo. The ovalbumin-sensitized mouse model of allergic inflammation and asthma used in these studies was as described by Singer et al. (2004), supra. As a negative control, a control peptide containing an N-terminal myristoyl group and the same amino acids as MANS peptide but arranged in random order (i.e., the random N-terminal sequence, RNS, myristoyl-peptide 232) was tested alongside the proposed active peptides. BP2 mice, aged 6-8 wks, were immunized subcutaneously twice at weekly intervals with 1 μg of ovalbumin. After 14 days of sensitization, the animals were exposed to aerosolized ovalbumin, which causes a pronounced goblet cell hyperplasia after 72 hours. At the 72 hr time point, the secretagogue, methacholine ([…]) was delivered using a Buxco system nebulizer providing a fine aerosol for 90 seconds. Fifteen min prior to the secretagogue challenge, 50 μL of the test peptide, at 3 different concentrations (10 μM, 100 μM, or 140 μM), was administered by intratracheal route. The RNS peptide was tested at the highest dose level only (50 μL of 140 μM solution). […] Each experiment was carried out in 6 mice per point, and each set of experiments was repeated 3 times. To test strain-to-strain variations, the above experiment was repeated in Balb/C mice under similar protocol. Both stimulated and unstimulated mucin secretion, in mice treated with […] sodium acetate (data not shown), were identical to saline control. Following the methacholine challenge, the animals were sacrificed and bronchoalveolar lavage (BAL) performed on 6 animals per group for analysis of secreted mucin.
# Mice were sacrificed by cervical dislocation, followed by rapid exposure of the trachea and insertion of a cannula through a small incision. Bronchoalveolar lavage (BAL) fluid was collected with 0.5 ml followed by 3×1 ml PBS containing PMSF (5 mM), EDTA (5 mM), and DTT (5 mM). BAL fluid was separated into cell-free and cell fractions via brief centrifugation prior to any analyses being performed. The cell-free supernatants were analyzed for the presence of mucin via an ELISA method using anti-mucin antibodies shown to react with mouse mucin. Specifically, a mouse anti-MUC5AC antibody that recognizes the carbohydrate portion of secreted mucin was used in these assays. Data generated from each BAL sample were normalized to total protein as determined by Bradford assay. Mucin content was expressed as the value obtained with the anti-mucin antibody minus that obtained with the non-immune control antibody. All ELISA data were statistically examined using a one-way ANOVA.
# Experiments were designed to determine the duration of action of test peptides in a murine model of asthma. As described in Method 1A, Balb/C mice were immunized with ovalbumin. After 14 days, the animals were challenged with aerosolized ovalbumin. After 72 hours the secretagogue, methacholine was delivered by aerosolization. The test peptides ([…] of 100 µM solution) were administered by intratracheal route 30 min, 60 min, or 120 min prior to methacholine challenge. The animals were sacrificed and BAL performed for analysis of secreted mucin The results of this experiment are given in Table VI.
# [3] = tested on: methacholine-induced mucin hypersecretion; test: Methacholine-induced mucin hypersecretion in ovalbumin-sensitized mouse model of asthma, BAL mucin ELISA (Balb/C mice); format: in vivo; conditions: for Mucin Secretion % control: Table II, peptides at 100 μM, 50 μL intratracheal 15 min before methacholine; for Mucin Secretion % of control: Table IV
# How it was run: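 BP2 or Balb/C mice immunized s.c. twice weekly with 1 μg ovalbumin, aerosol ovalbumin challenge after 14 days, then aerosolized methacholine 72 h later. Anti-MUC5AC ELISA on cell-free BAL, minus non-immune antibody signal, normalized to Bradford protein; 6 mice per group.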
# [4] = Stability of test peptides in human CF mucus (LC/MS/MS, first order half-life); format: in vitro ADME; conditions: cerebrospinal or other body fluid, pH 7, human CF mucus
# Protocol: as §1
# The frozen mucus (sputum) from a CF patient was thawed and mixed with 2 volumes of 75 mM sodium acetate buffer, pH 7 with the help of a glass tissue grinder, centrifuged at 10,000×g for 10 min at 4-8° C. The pellet was re-suspended in 1 volume of the acetate buffer and centrifuged. The two supernatants were combined and used as follows. The supernatant (450 μL) was spiked with 50 μL, of 0.5 mg/mL solution of the peptide in 75 mM sodium acetate buffer at pH 7.0 and processed and analyzed as described above.
# as §2, §3, §4, §5
# [5] = peptide intratracheal 30 min prior to methacholine challenge
# [6] = peptide intratracheal 60 min prior to methacholine challenge
# [7] = peptide intratracheal 120 min prior to methacholine challenge
# [8] = 1st experiment, read-out: Mucus t1/2 (1st exp.) (converted)
# [9] = 2nd experiment, read-out: Mucus t1/2 (2nd exp.) (converted)
substance,measurement,setting,value
Ac-GAQFSKTAAK-OH [Ac-peptide 106],half-life,[1],113 min
same,"Duration of action, mucin secretion (% of Control)",[2]; [5],21 % of Control
same,"Duration of action, mucin secretion (% of Control)",[2]; [6],72 % of Control
same,"Duration of action, mucin secretion (% of Control)",[2]; [7],70 % of Control
same,Mucin Secretion % control,[3],21.5 % control
same,half-life,[4]; [8],33 min
same,half-life,[4]; [9],28.2 min
"H-GAQFSKTAAK-OH [peptide 106, GAQFSKTAAK]",half-life,[1],113 min
same,"Duration of action, mucin secretion (% of Control)",[2]; [5],23 % of Control
same,"Duration of action, mucin secretion (% of Control)",[2]; [6],48 % of Control
same,"Duration of action, mucin secretion (% of Control)",[2]; [7],57 % of Control
same,Mucin Secretion % control,[3],33.8 % control
same,Mucin Secretion % of control,[3]; peptide 10 μM,64* % of control
same,Mucin Secretion % of control,[3]; peptide 100 μM,40** % of control
same,half-life,[4]; [8],13.8 min
same,half-life,[4]; [9],22.2 min
